Source: ChEMBL document CHEMBL5634091, “Cantharidin analogue alleviates dextran sulfate sodium-induced colitis in mice by inhibiting the activation of NF-κB signaling” (Eur J Med Chem, 2023)
Active and inactive are the calls of the source. No cut-off for these calls is given here.

What was measured:
[1] = Toxicity in C57BL/6 mouse model of DSS-induced acute ulcerative colitis assessed as effect on kidney tissue at 100 to 300 mg/kg, po administered once a day for 7 days by H and E staining based analysis; type: organism-based; details: in vivo, 168 h, dose 100-300 mg/kg, time 7 day
HCT-116 [2] = experiment: Activation of MAPK signaling pathway in TNF-alpha stimulated human HCT-116 cells assessed as increase in phospho-ERK protein expression at 50 uM preincubated for 4 hrs and followed TNF-alpha stimulation and measured after 10 mins by Western blot analysis; type: cell-based; details: filed as activator, time 250.0 min
DLD-1 [3] = experiment: Inhibition of TNF-alpha-induced NF-kappaB nuclear translocation in human DLD-1 cells preincubated for 4 hrs followed by TNF-alpha stimulation and measured after 30 mins by immunofluorescence staining based laser scanning confocal microscopic analysis; type: cell-based; details: dose 25-50 µM, time 4.5 hrs
DLD-1 [4] = experiment: Inhibition of TNF-alpha induced NF-kB activation in human DLD-1 cells assessed as decrease in phosphorylated IkappaBalpha protein expression preincubated for 4 hrs and followed TNF-alpha stimulation and measured after 10 mins by Western blot analysis; type: cell-based; details: dose 12.5-50 µM, time 250.0 min
Mus musculus [5] = experiment: Anti-inflammatory activity in po dosed C57BL/6 mouse model of DSS-induced acute ulcerative colitis assessed as reduction in IL-1beta mRNA expression in colon administered once a day for 7 days by RT-PCR analysis; type: functional, organism-based; details: dose 100-300 mg/kg, time 7.0 day
Mus musculus [6] = experiment: Anti-inflammatory activity in po dosed C57BL/6 mouse model of DSS-induced acute ulcerative colitis assessed as reduction in COX2 mRNA expression in colon administered once a day for 7 days by RT-PCR analysis; type: functional, organism-based; details: dose 100-300 mg/kg, time 7.0 day
[7] = biological target: T1, NF-kappa-B inhibitor alpha (Homo sapiens) (UniProt P25963); experiment: Inhibition of proteasomal degradation of IkappaBalpha in TNF-alpha induced human DLD-1 cells assessed as increase in IkappaBalpha protein expression at 12.5 to 50 uM preincubated for 4 hrs and followed TNF-alpha stimulation and measured after 10 mins by Western blot analysis; type: cell-based; details: dose 12.5-50 µM, time 250.0 min
T1 sequence (whole entry): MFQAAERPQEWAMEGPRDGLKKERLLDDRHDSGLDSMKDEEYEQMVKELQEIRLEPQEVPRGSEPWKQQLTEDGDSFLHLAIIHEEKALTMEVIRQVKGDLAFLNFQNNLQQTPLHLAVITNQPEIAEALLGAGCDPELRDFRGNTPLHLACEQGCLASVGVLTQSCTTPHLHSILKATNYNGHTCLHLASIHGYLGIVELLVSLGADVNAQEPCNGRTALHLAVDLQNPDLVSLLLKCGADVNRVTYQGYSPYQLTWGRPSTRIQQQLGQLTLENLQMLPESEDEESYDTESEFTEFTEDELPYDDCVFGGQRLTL

[8] = Toxicity in Kunming mouse assessed as increase in body weight at 1852 mg/kg, po measured for 15 days (reference value: 12.38%); type: organism-based; details: in vivo, 360 h, time 15 day
Mus musculus [9] = experiment: Anti-inflammatory activity in C57BL/6 mouse model of DSS-induced acute ulcerative colitis assessed as increase in IL-10 mRNA expression in colon at 100 to 300 mg/kg, po administered once a day for 7 days by RT-PCR analysis; type: functional, organism-based; details: dose 100-300 mg/kg, time 7.0 day
[10] = Toxicity in C57BL/6 mouse model of DSS-induced acute ulcerative colitis assessed as effect on liver tissue at 100 to 300 mg/kg, po administered once a day for 7 days by H and E staining based analysis; type: organism-based; details: in vivo, 168 h, dose 100-300 mg/kg, time 7 day
[11] = Toxicity in Kunming mouse assessed as increase in body weight at 667 mg/kg, po measured for 15 days (reference value: 12.38%); type: organism-based; details: in vivo, 360 h, time 15 day
DLD-1 [12] = experiment: Activation of MAPK signaling pathway in TNF-alpha stimulated human DLD-1 cells assessed as increase in phospho-ERK protein expression at 50 uM preincubated for 4 hrs and followed TNF-alpha stimulation and measured after 10 mins by Western blot analysis; type: cell-based; details: filed as activator, time 250.0 min
HCT-116 [13] = experiment: Inhibition of TNF-alpha induced NF-kB activation in human HCT-116 cells assessed as decrease in phosphorylated IkappaBalpha protein expression preincubated for 4 hrs and followed TNF-alpha stimulation and measured after 10 mins by Western blot analysis; type: cell-based; details: dose 12.5-50 µM, time 250.0 min
Mus musculus [14] = experiment: Anti-inflammatory activity in C57BL/6 mouse model of DSS-induced acute ulcerative colitis assessed as increase in colon length at 100 to 300 mg/kg, po administered once a day for 7 days; type: functional, organism-based; details: dose 100-300 mg/kg, time 7.0 day
HCT-116 [15] = experiment: Inhibition of TNF-alpha induced MAPK signaling pathway activation in human HCT-116 cells assessed as decrease in phospho-ERK protein expression at 6.25 uM preincubated for 4 hrs and followed TNF-alpha stimulation and measured after 10 mins by Western blot analysis; type: cell-based; details: time 250.0 min
[16] = Selectivity index, ratio of CC50 for cytotoxicity against TNF-alpha induced HEK293T cells to IC50 for inhibition of TNF-alpha induced NF-kappaB activation in HEK293T cells; type: toxicity, cell-based; details: human, HEK293T cells induced with TNF-alpha; read-out: Ratio IC50
HCT-116 [17] = experiment: Inhibition of TNF-alpha induced NF-kB activation in human HCT-116 cells assessed as decrease in phosphorylated p65 protein expression preincubated for 4 hrs and followed TNF-alpha stimulation and measured after 10 mins by Western blot analysis; type: cell-based; details: dose 12.5-50 µM, time 250.0 min
Mus musculus [18] = experiment: Anti-inflammatory activity in po dosed C57BL/6 mouse model of DSS-induced acute ulcerative colitis assessed as reduction in CCL2 mRNA expression in colon administered once a day for 7 days by RT-PCR analysis; type: functional, organism-based; details: dose 100-300 mg/kg, time 7.0 day
DLD-1 [19] = experiment: Upregulation of ERK protein expression in TNF-alpha stimulated human DLD-1 cells at 50 uM preincubated for 4 hrs and followed TNF-alpha stimulation and measured after 10 mins by Western blot analysis; type: functional, cell-based; details: time 250.0 min
[20] = Toxicity in C57BL/6 mouse model of DSS-induced acute ulcerative colitis assessed as effect on spleen tissue at 100 to 300 mg/kg, po administered once a day for 7 days by H and E staining based analysis; type: organism-based; details: in vivo, 168 h, dose 100-300 mg/kg, time 7 day
Mus musculus [21] = experiment: Anti-inflammatory activity in C57BL/6 mouse model of DSS-induced acute ulcerative colitis assessed as reduction in histopathological changes of granulocyte infiltration at 100 to 300 mg/kg, po administered once a day for 7 days by H and E staining based analysis; type: functional, organism-based; details: dose 100-300 mg/kg, time 7.0 day
HCT-116 [22] = experiment: Upregulation of JNK protein expression in TNF-alpha stimulated human HCT-116 cells at 50 uM preincubated for 4 hrs and followed TNF-alpha stimulation and measured after 10 mins by Western blot analysis; type: functional, cell-based; details: time 250.0 min
HCT-116 [23] = experiment: Inhibition of TNF-alpha induced activation of MAPK signaling pathway in human HCT-116 cells assessed as change in phosphorylated p38 level at 6.25 to 50 uM preincubated for 4 hrs and followed TNF-alpha stimulation and measured after 10 mins by Western blot analysis; type: cell-based; details: dose 6.25-50 µM, time 250.0 min
Mus musculus [24] = experiment: Anti-inflammatory activity in po dosed C57BL/6 mouse model of DSS-induced acute ulcerative colitis assessed as decrease in TNF-alpha expression in serum administered once a day for 7 days by ELISA; type: functional, organism-based; details: dose 100-300 mg/kg, time 7.0 day
Mus musculus [25] = experiment: Anti-inflammatory activity in C57BL/6 mouse model of DSS-induced acute ulcerative colitis assessed as reduction in p65 expression in colon at 100 to 300 mg/kg, po administered once a day for 7 days by immunohistochemical analysis; type: functional, organism-based; details: dose 100-300 mg/kg, time 7.0 day
[26] = Cytotoxicity against human DLD-1 cells assessed as inhibition in cell proliferation; type: toxicity, cell-based

SMILES: COC(=O)C1=C(C(=O)OC)C2OC1CC2C#Cc1ccc(C)cc1 (stereo unspecified)
- Activity [1]: Non-Toxic
- Activity (HCT-116 [2]): Active
- inhibition (DLD-1 [3]): Dose-Dependent Effect
- inhibition (DLD-1 [4]): Dose-Dependent Effect
- Activity (Mus musculus [5]): Dose-Dependent Effect
- Activity (Mus musculus [6]): Dose-Dependent Effect
- inhibition [7]: Active
- Activity [8]: 15.38%
- Activity (Mus musculus [9]): Active
- Activity [10]: Non-Toxic
- Activity [11]: 19.18%
- Activity (DLD-1 [12]): Active
- inhibition (HCT-116 [13]): Dose-Dependent Effect
- Activity (Mus musculus [14]): Active
- inhibition (HCT-116 [15]): Active
- selectivity ratio [16]: 5.85
- inhibition (HCT-116 [17]): Dose-Dependent Effect
- Activity (Mus musculus [18]): Dose-Dependent Effect
- Activity (DLD-1 [19]): Active
- Activity [20]: Non-Toxic
- Activity (Mus musculus [21]): Active
- Activity (HCT-116 [22]): Active
- inhibition (HCT-116 [23]): inactive
- Activity (Mus musculus [24]): Dose-Dependent Effect
- Activity (Mus musculus [25]): Active
- IC50 [26]: 8.24 µM
